The test system of the series is plasma protein. The class given is in vitro ADME, dog. As to the method:
One dialysis device was used in an equilibrium dialysis study to measure plasma protein binding of warfarin. A 0.1 M warfarin solution was prepared by dissolving 0.154 g of warfarin in 5 ml of phosphate buffered salts (PBS). The pH was adjusted with 400 Tl of 6 M NaOH to a final volume of 5.761 ml and a final concentration of 86.8 mM. The warfarin solution was then diluted to 1 mM before adding to the plasma solution. 2.2 Tl of 1 mM warfarin was added to 2.2 ml plasma to make 1 TM final concentration of warfarin in the plasma. 1 ml of the warfarin-containing dog plasma was added inside the cylindrical membrane of each dialysis device and 1 ml of PBS to outside of the membrane. The filled device was placed in a 37° C. incubator with gentle shaking 100 Tl samples were withdrawn separately from the plasma and the buffer chambers at 0.5, 1, 2, 3, and 4 h intervals. To the plasma sample was added 100 μl of blank buffer. To the buffer sample was added 100 μl of blank plasma. After mixing, 50 μl of the plasma sample was withdrawn. To the plasma sample (50 μl) was added 450 μl of 1:1 ratio of plasma/buffer solution to make a 10-fold dilution. The sample from the buffer was not diluted. 200 μl acetonitrile was added to 200 μl each of the samples from plasma and the buffer. The mixtures were vortexed and then centrifuged at 13,000 rpm for 3 min. The resulting extracts were analyzed using an API-40003 LC/MS/MS system (Applied Biosciences/MDS SCIEX). […] The experiment was conducted in duplicate.

Take `CC(=O)CC(c1ccccc1)c1c(O)c2ccccc2oc1=O` (stereo not drawn) [warfarin]: the “consistency of equilibrium curve (time to equilibrium)” value was ≤ 1 h and the “dialysis reached equilibrium state (time)” value is ≤ 30 min. Moreover, the “ratio of protein binding” value (dog, 1 µM) was ~99%.

For the origin of these results see US8034242B2, “Dialysis device” (Linden Technologies, Inc., priority 2004, dated 2011).
